Measured values: patent publication EP0935964A1, “Pharmaceutical compositions containing NSAIDs and piperine” (PANACEA BIOTEC LIMITED, priority 1998, dated 1999)
Where two headings read alike, the source gives them in different places.

Legend:
[1] = formulations containing Piperine compared with those which did not contain Piperine; cited from earlier work
[2] = in vivo; cited from earlier work
[3] = rats, oral, Nimesulide 10 mg/kg (with Piperine 10mg/kg in the combination), n = 5
Procedure: The single test point pharmacokinetic studies were performed in two groups of rats. […] Rats were sacrificed at 90 minutes. post treatment and blood samples were analysed by HPLC.

[4] = Plasma levels of Nimesulide in rats after oral administration of the compositions (Experiment I, HPLC); type: in vivo, albino rats
Procedure: The rats were housed 5 per cage with food and water provided ad libidum. On the day of experimentation the rats were randomised into ten batches of 5 rats each. Four groups were formed. […] Group II consisted of four batches of five rats each. […] Rats of batch I from Group II were sacrificed 60 minutes post treatment after Chloroform anaesthesia. […] Blood was collected from the rats from the ventricle into heparinised tubes. Group III consisted of one batch of 5 rats, which received only Piperine at a dose level of 1.0mg/kg body wt. […] Blood was collected from the rats from the ventricle into heparinised tubes. Group IV consisted of 4 batches of 5 rats each. […] Rats of batch 1 from Group IV were sacrificed 60 minutes post treatment after Chloroform anaesthesia. […] Blood was collected from the rats from the ventricle into heparinised tubes. The blood samples were centrifuged at 3700 rpm and the plasma separated. […] Extracted benzene was evaporated in a water bath at 95°C and reconstituted with 100 µl of mobile phase and 10 µl was injected into the HPLC. Waters HPLC fitted with C18 µ Bondapack was used along with Waters UV-Vis detector (254nm). […] Unpaired student T test was applied on the data. Level of significance was fixed at p < 0.05.

plasma proteins = conditions: cited from earlier work
[5] = tested on: acetic acid induced writhing; conditions: mice, n = 8, Nimesulide 10mg/kg
Procedure: Pharmacokinetic studies were also performed in rats. […] The study design for acetic acid induced writhing in mice was as follows : Table II

[6] = cited from earlier work
[7] = cited from earlier work; remark: listed apart in the source

NC(=O)c1cnccn1 [Pyrazinamide]
mean increase in AUC [1]: 36%

CS(=O)(=O)Nc1ccc([N+](=O)[O-])cc1Oc1ccccc1 [Nimesulide, N-(4-nitro, 2-phenoxyphenyl) methanesulfonamide]
dose excreted unchanged in the urine [2]: 1-3% | Plasma concentration (90 min post treatment) [3]: 8.818 mg/mL | Concentration of the drug in plasma ([4]; Nimesulide alone 1.8 mg/kg, 240 min post treatment): 4.6 ± 1.4 kg/mL | Plasma levels of Nimesulide ([4]; oral suspension, Nimesulide 1.8 mg/kg (with Piperine 1.0 mg/kg in the combination), 60 min. post treatment): 5.8 ± 1.7 mg/mL | Plasma levels of Nimesulide ([4]; oral suspension, Nimesulide 1.8 mg/kg (with Piperine 1.0 mg/kg in the combination), 120 min. post treatment): 7.9 ± 2.3 mg/mL | Plasma levels of Nimesulide ([4]; oral suspension, Nimesulide 1.8 mg/kg (with Piperine 1.0 mg/kg in the combination), 240 min. post treatment): 4.6 ± 1.4 mg/mL | Plasma levels of Nimesulide ([4]; oral suspension, Nimesulide 1.8 mg/kg (with Piperine 1.0 mg/kg in the combination), 360 min. post treatment): 2.2 ± 1.1 mg/mL | bound to plasma proteins (plasma proteins): 99% | % PROTECTION [5]: 54%

O=C(/C=C/C=C/c1ccc2c(c1)OCO2)N1CCCCC1 [Piperine, (E, E) 1-[5-(1,3-benzodioxyl-5-yl)-1-oxo-2,4-pentadenyl] piperidine]
pKa [6]: 12.22 | solubility ([7]; in benzene, chloroform, ether, ethyl acetate, dichloromethane, alcohol, acetic acid): soluble | solubility ([7]; in water, pet. ether): insoluble | Plasma levels of Nimesulide ([4]; only Piperine 1.0 mg/kg, no Nimesulide, column 120 min.): Nil

NNC(=O)c1ccncc1 [Isoniazid]
mean increase in AUC [1]: 131%

CO[C@H]1/C=C/O[C@@]2(C)Oc3c(C)c(O)c4c(O)c(c(/C=N/N5CCN(C)CC5)c(O)c4c3C2=O)NC(=O)/C(C)=C\C=C\[C@H](C)[C@H](O)[C@@H](C)[C@@H](O)[C@@H](C)[C@H](OC(C)=O)[C@@H]1C [Rifampicin]
mean increase in AUC [1]: 37.6%
